The values below come from PMC7259758 (PLoS ONE, 2020).

As a reminder, the IC50 is the concentration at which inhibition is half-maximal. As a reminder, the EC50 is the midpoint of the concentration-response curve.

Structures are written as SMILES. A value given as a limit tells only on which side of the number the result lay.

The target in one assay is T1, CLK2(h) (Homo sapiens, UniProt P49760).
T1 construct: purchased Eurofins, Dundee, Scotland
Nature of the assay: Radiometric protein kinase assay (Eurofins). It counts as biochemical. Particulars: ATP 10 μM.

The test system of assay [1] is triple-exon skipping of MDM2 pre-mRNA in SK-MEL-2/Luc-MDM2 cells. Nature of the assay: TESLR (Triple Exon Skipping Luciferase Reporter) dose response. Particulars: Homo sapiens, SK-MEL-2, 4 h, read-out: TESLR EC50. Background: A reporter such as luciferase makes a cellular process visible.
Procedure: SK-MEL-2/MDM2-Luc stable cells were cultured in MEM medium with Earle's salts and L-glutamine containing 1 mM sodium pyruvate, 10% FCS and 10 mM Hepes and plated at a density of 10,000/well in 96-well plates and incubated overnight at 37°C in 5% CO2. The following day, cells were treated with serial dilutions of compounds for 4 hrs, ONE-Glo reagents (Promega) were added to measure the luciferase activity on an EnVision plate reader. SD6 and 0.5% DMSO were used as positive and negative controls, respectively. Relative luminescent units were plotted against corresponding drug concentrations and fitted with a standard four parameter sigmoidal curve with GraphPad Prism.
The TESLR assay in SK-MEL-2/Luc-MDM2 cells with 4 hour treatment. SK-MEL-2/Luc-MDM2 stable cells were plated at a density of 20,000 cells/well in 96-well plates and incubated overnight at 37°C in 5% CO2. The following day, cells were treated with either 0.5% DMSO or serial dilution of hits identified from the library screen in 0.5% DMSO for 4 hours. ONE-Glo™ EX reagent (Promega) was added to measure the luciferase activity using an EnVision plate reader. Relative luminescent units were plotted against corresponding drug concentrations and fitted with a standard four parameter sigmoidal curve with GraphPad Prism.
SK-MEL-2/Luc-MDM2 stable cells were plated at a density of 20,000 cells/well in 96-well plates and incubated overnight at 37°C in 5% CO2. The following day, cells were treated with serial dilutions of the indicated compounds for 4 hours and ONE-Glo™ EX reagents (Promega) were added to measure the luciferase activity.
Another assay deals with T2, GSK3β(h) (Homo sapiens, UniProt P49841).
T2 construct: purchased Eurofins, Dundee, Scotland
Nature of the assay: Radiometric protein kinase assay (Eurofins). It counts as biochemical. Particulars: 40 min; ATP 15 μM; read-out: GSK3β(h) IC50.

The next assay has as its target T3, CLK1(h) (Homo sapiens, UniProt P49759).
T3 construct: purchased Eurofins, Dundee, Scotland
Briefly: Radiometric protein kinase assay (Eurofins). It counts as biochemical. Particulars: ATP 10 μM. Here is the method: (§1) Enzymatic biochemical activities were evaluated in radiometric protein kinase assays (Eurofins, Dundee, Scotland). Kinases are incubated with buffer, substrate and [γ-^33P]-ATP (specific activity approx. 500 cpm/pmol, concentration as required). The reaction is initiated by the addition of the MgATP mix. After incubation for 40 minutes at room temperature, the reaction is stopped by the addition of 3% phosphoric acid solution. 10 μL of the reaction is then spotted onto a P30 filtermat and washed three times for 5 minutes in 75 mM phosphoric acid and once in methanol prior to drying and scintillation counting. All compounds are prepared to 50x final assay concentration in 100% DMSO. Positive control wells contain all components of the reaction with 2% DMSO. Blank wells contain all components of the reaction, with a reference inhibitor replacing the compound of interest. Each kinase is assigned a standard assay concentration of ATP within 20 μM of its apparent Km. Compounds were screened at 1 μM in duplicate or tested at 10 concentrations at half log dilution starting from 10 μM in singlicate. Dose response curves were fitted with four parameter logistic curve to obtain IC50 values. […]
(§2) Staurosporine is used as reference for all tested enzymes except for SRPK3 (reference inhibitor: K-252a. Nocardiopsis sp), NEK2 (reference inhibitor: […]), and CK2, CK2α2, MAPK1, MAPK2 (reference inhibitor: PKR Inhibitor). See Table 1 below for additional details.

The next assay deals with T4, CLK4(h) (Homo sapiens, UniProt Q9HAZ1).
T4 construct: purchased Eurofins, Dundee, Scotland
Nature of the assay: Radiometric protein kinase assay (Eurofins). Type of assay: biochemical. Particulars: ATP 10 μM. Here is the method: as §1, §2

For another assay, the target named is T5, DYRK1B (h) (Homo sapiens, UniProt Q9Y463).
T5 construct: purchased Eurofins, Dundee, Scotland
Briefly: Radiometric protein kinase assay (Eurofins). It counts as biochemical. Particulars: ATP 45 μM. Here is the method: as §1, §2

The next assay deals with T6, MAPK2 (h) (Homo sapiens, UniProt P28482).
T6 construct: purchased Eurofins, Dundee, Scotland
Briefly: Radiometric protein kinase assay (Eurofins). It counts as biochemical. Particulars: 40 min; ATP 155 μM; read-out: MAPK2 IC50. The procedure:
as §1, §2

A further assay concerns the target T7, SRPK2 (h) (Homo sapiens, UniProt P78362).
T7 construct: purchased Eurofins, Dundee, Scotland
Briefly: Radiometric protein kinase assay (Eurofins). Type of assay: biochemical. Particulars: 40 min; ATP 10 μM; read-out: SRPK2 IC50. Here is the method:
as §1, §2

The target of another assay is T8, GSK3α(h) (Homo sapiens, UniProt P49840).
T8 construct: purchased Eurofins, Dundee, Scotland
Nature of the assay: Radiometric protein kinase assay (Eurofins). Type of assay: biochemical. The conditions noted are these: 40 min; ATP 10 μM; read-out: GSK3α(h) IC50. The procedure:
as §1, §2

The next assay concerns the target T9, AKT3 (Homo sapiens, UniProt Q9Y243).
T9 construct: purchased Eurofins, Dundee, Scotland
Briefly: Radiometric protein kinase assay (Eurofins). Particulars: ATP 45 μM. It counts as biochemical. Here is the method: as §1, §2

A further assay deals with T10, CK2 (h) (Homo sapiens, UniProt P68400).
T10 construct: purchased Eurofins, Dundee, Scotland
Nature of the assay: Radiometric protein kinase assay (Eurofins). Type of assay: biochemical. The conditions noted are these: 40 min; ATP 10 μM; read-out: CK2 IC50. Here is the method: as §1, §2

Another assay deals with T11, SRPK1(h) (Homo sapiens, UniProt Q96SB4).
T11 construct: purchased Eurofins, Dundee, Scotland
Nature of the assay: Radiometric protein kinase assay (Eurofins). It counts as biochemical. Particulars: ATP 10 μM. The procedure: as §1, §2

For the next assay, the target named is T12, DYRK1A(h) (Homo sapiens, UniProt Q13627).
T12 construct: purchased Eurofins, Dundee, Scotland
Briefly: Radiometric protein kinase assay (Eurofins). It counts as biochemical. The conditions noted are these: ATP 45 μM. Here is the method: as §1, §2

Another assay addresses T13, SRPK3 (h) (Homo sapiens, UniProt Q9UPE1).
T13 construct: purchased Eurofins, Dundee, Scotland
Nature of the assay: Radiometric protein kinase assay (Eurofins). It counts as biochemical. The conditions noted are these: ATP 15 μM. The procedure: as §1, §2

Another assay deals with T14, MAPK1 (h) (Homo sapiens, UniProt P27361).
T14 construct: purchased Eurofins, Dundee, Scotland
Nature of the assay: Radiometric protein kinase assay (Eurofins). It counts as biochemical. Particulars: 40 min; read-out: MAPK1 IC50. The procedure:
as §1, §2

The next assay addresses T15, CK2α2 (h) (Homo sapiens, UniProt P19784).
T15 construct: purchased Eurofins, Dundee, Scotland
Briefly: Radiometric protein kinase assay (Eurofins). Particulars: 40 min; ATP 10 μM; read-out: CK2a2 IC50. It counts as biochemical. Here is the method: as §1, §2

The next assay deals with T16, CLK3(h) (Homo sapiens, UniProt P49761).
T16 construct: purchased Eurofins, Dundee, Scotland
Briefly: Radiometric protein kinase assay (Eurofins). Type of assay: biochemical. Particulars: ATP 90 μM. Here is the method: as §1, §2

For assay [2], the system named is RBM39 pre-mRNA splicing in Rh18 cells. Briefly: RT-PCR confirmation of splicing changes, RBM39. Type of assay: cell-based. The conditions noted are these: 4 h, compound 1 10 μM, compound 2 5 μM. The procedure:
(§3) RH-18 cells were cultured in RPMI 1640 medium containing 10% FCS. Cells are all maintained in humidified incubator with 5% CO2 at 37°C. Rh18 cells were exposed to 0.5% DMSO or SD6 10 μM, Cpd1 10 μM, Cpd2 5 μM or Cpd3 10 μM for 4 h. Total RNA was extracted and converted to cDNA. PCR was performed using NEB Q5 Master Mix and specific primers listed below (Table 2) according to the manufacturer’s instruction and standard PCR protocols: 50 ng cDNA and 30 μl of the final reaction volume was used. PCR products were subjected to 3% agarose gel electrophoresis.
(§4) AS patterns were identified with compound treatment for MDM2 and RBM39 transcripts. Ubiquitin (UBQ) transcripts were used as a control since these are not spliced. […] Rh18 cells were treated with either DMSO control or compounds for 4 h. Total RNA was extracted and converted to cDNA. PCR was performed using corresponding primers and PCR products were subjected to 3% agarose gel electrophoresis.

The next assay addresses T17, PYK2 (h) (Homo sapiens, UniProt Q14289).
T17 construct: purchased Eurofins, Dundee, Scotland
Briefly: Radiometric protein kinase assay (Eurofins). The conditions noted are these: 40 min; ATP 90 μM; read-out: PYK2 IC50. It counts as biochemical.

The subject of assay [3] is MDM2 pre-mRNA splicing in Rh18 cells. Briefly: RT-PCR confirmation of splicing changes, MDM2. It counts as cell-based. The conditions noted are these: 4 h, SD6 10 μM, compound 1 10 μM, compound 2 5 μM, compound 3 10 μM. Here is the method:
as §3, §4

T8 sequence (P49840 whole entry): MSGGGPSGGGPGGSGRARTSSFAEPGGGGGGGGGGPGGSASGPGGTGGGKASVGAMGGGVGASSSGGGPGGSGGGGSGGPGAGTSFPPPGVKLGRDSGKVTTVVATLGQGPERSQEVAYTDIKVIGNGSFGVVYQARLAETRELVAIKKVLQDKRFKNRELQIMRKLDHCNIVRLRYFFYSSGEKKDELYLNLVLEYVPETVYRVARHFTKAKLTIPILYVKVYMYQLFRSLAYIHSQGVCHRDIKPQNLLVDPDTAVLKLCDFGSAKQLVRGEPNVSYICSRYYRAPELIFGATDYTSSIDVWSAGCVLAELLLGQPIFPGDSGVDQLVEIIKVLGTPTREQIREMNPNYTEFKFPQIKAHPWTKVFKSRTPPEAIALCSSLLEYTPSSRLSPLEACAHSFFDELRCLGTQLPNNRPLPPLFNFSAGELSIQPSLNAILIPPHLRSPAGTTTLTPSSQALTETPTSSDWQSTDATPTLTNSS
T10 sequence (P68400 whole entry): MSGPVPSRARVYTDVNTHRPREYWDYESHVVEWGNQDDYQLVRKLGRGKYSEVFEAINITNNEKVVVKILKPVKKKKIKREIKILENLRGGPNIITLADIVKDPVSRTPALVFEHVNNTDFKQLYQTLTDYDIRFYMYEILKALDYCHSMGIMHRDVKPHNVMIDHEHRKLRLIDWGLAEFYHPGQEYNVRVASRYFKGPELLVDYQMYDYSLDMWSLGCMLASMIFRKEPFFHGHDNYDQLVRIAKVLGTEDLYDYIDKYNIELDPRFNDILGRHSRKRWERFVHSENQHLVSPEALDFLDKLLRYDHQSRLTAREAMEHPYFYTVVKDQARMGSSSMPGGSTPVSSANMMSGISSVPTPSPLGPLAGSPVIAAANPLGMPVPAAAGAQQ
T10 sequence (P67870 whole entry partner): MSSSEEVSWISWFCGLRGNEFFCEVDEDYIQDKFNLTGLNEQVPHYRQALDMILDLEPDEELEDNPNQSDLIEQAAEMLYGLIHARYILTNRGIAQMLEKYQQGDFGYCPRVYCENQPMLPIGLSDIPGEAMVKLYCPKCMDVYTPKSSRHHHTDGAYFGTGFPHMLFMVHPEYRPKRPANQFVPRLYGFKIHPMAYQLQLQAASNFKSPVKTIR
T6 sequence (P28482 whole entry): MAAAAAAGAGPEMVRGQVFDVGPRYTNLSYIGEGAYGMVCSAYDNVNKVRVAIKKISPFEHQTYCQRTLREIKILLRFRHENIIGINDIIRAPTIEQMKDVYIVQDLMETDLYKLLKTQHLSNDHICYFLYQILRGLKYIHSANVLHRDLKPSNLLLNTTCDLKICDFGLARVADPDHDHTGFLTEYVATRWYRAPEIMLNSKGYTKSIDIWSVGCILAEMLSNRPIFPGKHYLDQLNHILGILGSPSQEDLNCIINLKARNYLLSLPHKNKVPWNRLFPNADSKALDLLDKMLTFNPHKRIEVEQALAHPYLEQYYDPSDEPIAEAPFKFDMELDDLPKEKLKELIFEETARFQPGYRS
T3 sequence (P49759 whole entry): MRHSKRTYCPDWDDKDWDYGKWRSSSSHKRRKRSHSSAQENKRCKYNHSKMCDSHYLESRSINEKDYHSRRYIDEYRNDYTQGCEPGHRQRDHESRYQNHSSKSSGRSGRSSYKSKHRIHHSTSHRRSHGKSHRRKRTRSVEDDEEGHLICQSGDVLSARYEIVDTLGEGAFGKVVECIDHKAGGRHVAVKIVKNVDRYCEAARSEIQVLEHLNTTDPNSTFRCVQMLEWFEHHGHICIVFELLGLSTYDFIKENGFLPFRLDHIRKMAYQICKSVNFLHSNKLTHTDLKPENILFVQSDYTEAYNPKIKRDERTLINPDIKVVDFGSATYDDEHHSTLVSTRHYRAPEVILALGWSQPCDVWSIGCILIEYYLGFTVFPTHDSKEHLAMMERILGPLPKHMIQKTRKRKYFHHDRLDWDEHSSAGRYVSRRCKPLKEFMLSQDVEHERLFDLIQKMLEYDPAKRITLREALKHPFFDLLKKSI
T17 sequence (Q14289 whole entry): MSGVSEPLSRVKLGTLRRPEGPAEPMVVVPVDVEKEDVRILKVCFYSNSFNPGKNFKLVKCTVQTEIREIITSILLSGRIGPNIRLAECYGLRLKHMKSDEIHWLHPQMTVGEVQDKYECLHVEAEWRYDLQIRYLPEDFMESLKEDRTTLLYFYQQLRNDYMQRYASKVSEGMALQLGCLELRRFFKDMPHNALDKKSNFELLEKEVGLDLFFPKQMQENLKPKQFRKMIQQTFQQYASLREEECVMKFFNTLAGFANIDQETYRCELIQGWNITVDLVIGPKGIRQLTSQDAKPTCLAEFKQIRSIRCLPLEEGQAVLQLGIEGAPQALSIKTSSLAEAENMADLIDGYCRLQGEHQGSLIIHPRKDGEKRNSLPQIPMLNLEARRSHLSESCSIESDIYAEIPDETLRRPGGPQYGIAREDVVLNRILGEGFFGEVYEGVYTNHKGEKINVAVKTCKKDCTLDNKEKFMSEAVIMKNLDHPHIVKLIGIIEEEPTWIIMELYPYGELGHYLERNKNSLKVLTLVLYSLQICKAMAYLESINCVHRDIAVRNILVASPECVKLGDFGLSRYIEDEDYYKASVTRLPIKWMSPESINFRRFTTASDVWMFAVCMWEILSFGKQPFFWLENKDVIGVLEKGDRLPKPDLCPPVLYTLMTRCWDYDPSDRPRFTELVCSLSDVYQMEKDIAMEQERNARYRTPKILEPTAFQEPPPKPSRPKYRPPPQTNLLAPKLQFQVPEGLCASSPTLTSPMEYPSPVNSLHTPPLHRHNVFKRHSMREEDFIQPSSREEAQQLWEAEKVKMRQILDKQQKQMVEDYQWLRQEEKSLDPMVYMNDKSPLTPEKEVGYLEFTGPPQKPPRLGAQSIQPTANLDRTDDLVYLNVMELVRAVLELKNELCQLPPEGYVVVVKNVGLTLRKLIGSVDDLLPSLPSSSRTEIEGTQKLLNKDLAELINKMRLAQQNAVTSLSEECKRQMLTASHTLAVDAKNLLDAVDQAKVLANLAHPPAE
T4 sequence (Q9HAZ1 whole entry): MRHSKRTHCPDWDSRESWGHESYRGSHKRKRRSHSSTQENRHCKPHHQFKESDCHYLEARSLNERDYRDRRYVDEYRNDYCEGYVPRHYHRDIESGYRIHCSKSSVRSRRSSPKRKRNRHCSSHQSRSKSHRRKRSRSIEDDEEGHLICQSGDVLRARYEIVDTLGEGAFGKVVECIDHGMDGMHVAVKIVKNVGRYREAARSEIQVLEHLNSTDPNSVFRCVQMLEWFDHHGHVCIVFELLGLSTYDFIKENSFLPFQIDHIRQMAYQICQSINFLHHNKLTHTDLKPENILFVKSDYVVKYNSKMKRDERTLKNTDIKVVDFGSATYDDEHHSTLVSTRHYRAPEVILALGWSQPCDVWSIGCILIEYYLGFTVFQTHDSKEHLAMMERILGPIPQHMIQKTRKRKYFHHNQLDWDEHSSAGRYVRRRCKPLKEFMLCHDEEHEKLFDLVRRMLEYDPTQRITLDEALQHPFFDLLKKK
T9 sequence (Q9Y243 whole entry): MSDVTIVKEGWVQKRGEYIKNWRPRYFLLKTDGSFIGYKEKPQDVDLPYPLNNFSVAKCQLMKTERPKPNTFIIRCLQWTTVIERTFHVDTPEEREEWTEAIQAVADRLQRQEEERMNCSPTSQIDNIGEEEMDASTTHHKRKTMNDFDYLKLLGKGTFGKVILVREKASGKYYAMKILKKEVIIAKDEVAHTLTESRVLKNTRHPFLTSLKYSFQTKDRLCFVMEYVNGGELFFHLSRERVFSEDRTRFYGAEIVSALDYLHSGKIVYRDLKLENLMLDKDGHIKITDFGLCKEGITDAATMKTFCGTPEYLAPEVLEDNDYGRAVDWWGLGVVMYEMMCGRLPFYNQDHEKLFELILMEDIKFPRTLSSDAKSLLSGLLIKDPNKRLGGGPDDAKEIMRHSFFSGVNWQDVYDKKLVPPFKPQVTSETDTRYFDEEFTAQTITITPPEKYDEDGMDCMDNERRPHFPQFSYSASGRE
T5 sequence (Q9Y463 whole entry): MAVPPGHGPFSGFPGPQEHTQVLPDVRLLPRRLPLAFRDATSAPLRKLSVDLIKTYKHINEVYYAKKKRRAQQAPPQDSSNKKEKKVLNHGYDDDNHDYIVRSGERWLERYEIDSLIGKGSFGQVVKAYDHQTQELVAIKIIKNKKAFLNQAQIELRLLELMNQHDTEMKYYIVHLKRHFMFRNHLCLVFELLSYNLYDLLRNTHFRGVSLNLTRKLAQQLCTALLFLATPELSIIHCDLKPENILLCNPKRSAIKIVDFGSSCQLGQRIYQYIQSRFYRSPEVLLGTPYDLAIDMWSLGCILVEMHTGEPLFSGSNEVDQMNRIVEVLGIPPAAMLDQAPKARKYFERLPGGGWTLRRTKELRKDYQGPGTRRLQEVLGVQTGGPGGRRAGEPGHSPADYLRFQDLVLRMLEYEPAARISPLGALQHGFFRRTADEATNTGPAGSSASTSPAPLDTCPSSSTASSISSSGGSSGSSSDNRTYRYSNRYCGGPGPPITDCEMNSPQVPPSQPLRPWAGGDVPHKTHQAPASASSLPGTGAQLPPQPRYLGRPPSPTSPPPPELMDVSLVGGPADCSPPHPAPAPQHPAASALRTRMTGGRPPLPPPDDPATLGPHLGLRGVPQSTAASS
T15 sequence (P19784 whole entry): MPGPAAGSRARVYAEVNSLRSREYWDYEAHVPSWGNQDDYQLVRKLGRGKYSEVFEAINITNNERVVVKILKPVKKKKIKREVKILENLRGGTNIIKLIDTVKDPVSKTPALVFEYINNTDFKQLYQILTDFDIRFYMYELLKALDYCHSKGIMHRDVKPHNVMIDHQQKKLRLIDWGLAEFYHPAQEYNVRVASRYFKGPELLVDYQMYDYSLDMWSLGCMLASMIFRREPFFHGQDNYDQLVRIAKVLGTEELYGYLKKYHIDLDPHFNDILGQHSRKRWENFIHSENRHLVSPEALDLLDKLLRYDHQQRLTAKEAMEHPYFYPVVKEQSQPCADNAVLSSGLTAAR
Procedure for CLK2(h): (§5) Enzymatic biochemical activities were evaluated in radiometric protein kinase assays (Eurofins, Dundee, Scotland). Kinases are incubated with buffer, substrate and [γ-^33P]-ATP (specific activity approx. 500 cpm/pmol, concentration as required). The reaction is initiated by the addition of the MgATP mix. After incubation for 40 minutes at room temperature, the reaction is stopped by the addition of 3% phosphoric acid solution. 10 μL of the reaction is then spotted onto a P30 filtermat and washed three times for 5 minutes in 75 mM phosphoric acid and once in methanol prior to drying and scintillation counting. All compounds are prepared to 50x final assay concentration in 100% DMSO. Positive control wells contain all components of the reaction with 2% DMSO. Blank wells contain all components of the reaction, with a reference inhibitor replacing the compound of interest. […] Compounds were screened at 1 μM in duplicate or tested at 10 concentrations at half log dilution starting from 10 μM in singlicate. Dose response curves were fitted with four parameter logistic curve to obtain IC50 values.
Procedure for GSK3β(h): as §5
Procedure for PYK2 (h): as §5

For the molecule `CNC(=O)c1nn(C)c2c1C(C)(C)Cc1cnc(Nc3ccc(N4CCN(C)CC4)cc3)nc1-2` [Compound 1, milciclib], the IC50 at CLK2(h) worked out at 1 nM; at CLK1(h), 3 nM; at CLK4(h), 13 nM; on DYRK1B (h), 5 nM; at DYRK1A(h), 17 nM; at CLK3(h), 425 nM. Besides, the EC50 in assay [1] worked out at 9190 nM. Further, the inhibition at 1 µM on GSK3β(h) was less than 50%; on MAPK2 (h), less than 50%; at SRPK2 (h), less than 50%; at GSK3α(h), less than 50%; at AKT3 (40 min, read-out: AKT3 IC50) it was less than 50%; on CK2 (h) it was less than 50%. The inhibition at 1 µM is less than 50% at SRPK1(h) (40 min, read-out: SRPK1 IC50); less than 50% at SRPK3 (h) (40 min, read-out: SRPK3 IC50); less than 50% at MAPK1 (h); less than 50% at CK2α2 (h); less than 50% at PYK2 (h). Moreover, the “RBM39 alternative splicing (AS) pattern by RT-PCR” value in assay [2] is “transcript at 673 bp showing the greatest abundance”. Also, in assay [3], the “MDM2 alternative splicing (AS) pattern by RT-PCR” value is “AS isoform of 785 bp was dominant”.

Consider `Cc1nc(Nc2[nH]nc3c2CN(C(=O)N[C@H](CN(C)C)c2ccccc2)C3(C)C)c2sccc2n1` [Compound 2, PF-3758309], for which the IC50 turned out to be 6 nM at CLK2(h); 27 nM against CLK1(h); 48 nM at CLK4(h); 54 nM against AKT3; 170 nM against SRPK1(h); 189 nM against SRPK3 (h). This molecule also came in with an IC50 against CLK3(h) of 485 nM. Further, the EC50 in [1] was found to be 3440 nM. Besides, the inhibition at 1 µM on GSK3β(h) was less than 50%; at DYRK1B (h) (40 min, read-out: DYRK1B IC50), less than 50%; at MAPK2 (h), less than 50%; on SRPK2 (h), less than 50%; at GSK3α(h), less than 50%; on CK2 (h), less than 50%. The inhibition at 1 µM on DYRK1A(h) (40 min, read-out: DYRK1A IC50) was less than 50%; at MAPK1 (h), less than 50%; on CK2α2 (h) it was less than 50%; at PYK2 (h), less than 50%. Further, in assay [2], the “RBM39 alternative splicing (AS) pattern by RT-PCR” value is on record as “transcript at 673 bp showing the greatest abundance”. The “MDM2 alternative splicing (AS) pattern by RT-PCR” value in [3] is recorded as “AS isoform of 785 bp was dominant”.
